Measurements reported in patent publication US11331327B2, “Antibacterial use of halogenated salicylanilides” (UNION therapeutics A/S, priority 2014, dated 2022).
≈ marks a conversion by molar mass, not a printed value.

Test system: S. aureus clinical isolates and S. aureus ATCC 29213
Experiment: MIC assay according to CLSI criteria, Example 2, S. aureus strains
Assay type: cell-based, Staphylococcus aureus
Conditions: Staphylococcus aureus
Procedure, shortened: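 Wells received roughly 5×10^5 S. aureus cells taken in exponential growth, in cation-adjusted MH broth. Plates held aerobically at 37° C for 18 hours.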

CN[C@H](CC(C)C)C(=O)N[C@H]1C(=O)N[C@@H](CC(N)=O)C(=O)N[C@H]2C(=O)N[C@H]3C(=O)N[C@H](C(=O)N[C@H](C(=O)O)c4cc(O)cc(O)c4-c4cc3ccc4O)[C@H](O)c3ccc(c(Cl)c3)Oc3cc2cc(c3O[C@@H]2O[C@H](CO)[C@@H](O)[C@H](O)[C@H]2O[C@H]2C[C@](C)(N)[C@H](O)[C@H](C)O2)Oc2ccc(cc2Cl)[C@H]1O [Vancomycin]
MIC (ATCC 29213 / MRSA, strain MRSA 15): 2 µg/mL (≈ 1.38 µM) | MIC (ATCC 29213 / MRSA, strain MRSA 16): 1 µg/mL (≈ 0.69 µM) | MIC (ATCC 29213 / MRSA, strain MRSA 17): 2 µg/mL (≈ 1.38 µM) | MIC (ATCC 29213 / MRSA, strain MRSA 18): 1 µg/mL (≈ 0.69 µM) | MIC (ATCC 29213 / MRSA, strain MRSA 19): 1 µg/mL (≈ 0.69 µM) | MIC (ATCC 29213 / MRSA, strain MRSA 20): 1 µg/mL (≈ 0.69 µM) | MIC (ATCC 29213 / MRSA, strain MRSA 21): 1 µg/mL (≈ 0.69 µM) | MIC (ATCC 29213 / MRSA, strain MRSA 22): 0.5 µg/mL (≈ 0.345 µM) | MIC (ATCC 29213 / MRSA, strain MRSA 23): 1 µg/mL (≈ 0.69 µM) | MIC (ATCC 29213 / MRSA, strain MRSA 24): 2 µg/mL (≈ 1.38 µM) | MIC (ATCC 29213 / MRSA, strain MRSA 25): 1 µg/mL (≈ 0.69 µM) | MIC (ATCC 29213 / MRSA, strain MRSA 26): 1 µg/mL (≈ 0.69 µM) | MIC (ATCC 29213 / MRSA, strain MRSA 27): 1 µg/mL (≈ 0.69 µM) | MIC (ATCC 29213 / MRSA, strain MRSA 27b): 1 µg/mL (≈ 0.69 µM) | MIC (ATCC 29213 / MRSA, strain MRSA 28): 1 µg/mL (≈ 0.69 µM) | MIC (ATCC 29213 / MRSA, strain MRSA 29): 1 µg/mL (≈ 0.69 µM) | MIC (ATCC 29213 / MRSA, strain MRSA 30): 1 µg/mL (≈ 0.69 µM) | MIC (ATCC 29213 / MRSA, strain MRSA 31): 1 µg/mL (≈ 0.69 µM) | MIC (ATCC 29213 / MRSA, strain MRSA 32): 1 µg/mL (≈ 0.69 µM) | MIC (ATCC 29213 / MRSA, strain MRSA 33): 1 µg/mL (≈ 0.69 µM) | MIC (ATCC 29213 / MRSA, strain MRSA 34): 1 µg/mL (≈ 0.69 µM) | MIC (ATCC 29213 / MRSA, strain MRSA 35): 1 µg/mL (≈ 0.69 µM) | MIC (ATCC 29213 / MRSA, strain MRSA 36): 1 µg/mL (≈ 0.69 µM) | MIC (ATCC 29213 / MRSA, strain MRSA 37): 1 µg/mL (≈ 0.69 µM) | MIC (ATCC 29213 / MRSA, strain MRSA 38): 1 µg/mL (≈ 0.69 µM) | MIC (ATCC 29213 / MRSA, strain MRSA 39): 1 µg/mL (≈ 0.69 µM) | MIC (ATCC 29213 / MRSA, strain MRSA 40): 1 µg/mL (≈ 0.69 µM) | MIC (ATCC 29213 / MRSA, strain MRSA 41): 1 µg/mL (≈ 0.69 µM) | MIC (ATCC 29213 / MRSA, strain MRSA 42): 1 µg/mL (≈ 0.69 µM) | MIC (ATCC 29213 / MRSA, strain MRSA 43): 1 µg/mL (≈ 0.69 µM) | MIC (ATCC 29213 / MRSA, strain MRSA 44): 1 µg/mL (≈ 0.69 µM) | MIC (ATCC 29213 / MRSA, strain MRSA 45): 1 µg/mL (≈ 0.69 µM) | MIC (ATCC 29213 / MRSA, strain MRSA 46): 1 µg/mL (≈ 0.69 µM) | MIC (ATCC 29213 / MRSA, strain MRSA 47): 0.5 µg/mL (≈ 0.345 µM) | MIC (ATCC 29213 / MRSA, strain MRSA 48): 0.5 µg/mL (≈ 0.345 µM) | MIC (ATCC 29213 / MRSA, strain MRSA 49): 2 µg/mL (≈ 1.38 µM) | MIC (ATCC 29213 / MRSA, strain MRSA 50): 1 µg/mL (≈ 0.69 µM) | MIC (ATCC 29213 / MRSA, strain MRSA 51): 1 µg/mL (≈ 0.69 µM) | MIC (ATCC 29213 / MRSA, strain MRSA 52): 1 µg/mL (≈ 0.69 µM) | MIC (ATCC 29213 / MRSA, strain MRSA 53): 1 µg/mL (≈ 0.69 µM) | MIC (ATCC 29213 / MRSA, strain MRSA 54): 2 µg/mL (≈ 1.38 µM) | MIC (ATCC 29213 / MRSA, strain MRSA 55): 0.5 µg/mL (≈ 0.345 µM) | MIC (ATCC 29213 / MRSA, strain MRSA 56): 1 µg/mL (≈ 0.69 µM) | MIC (ATCC 29213 / MRSA, strain MRSA 57): 1 µg/mL (≈ 0.69 µM) | MIC (ATCC 29213 / MRSA, strain MRSA 58): 1 µg/mL (≈ 0.69 µM) | MIC (ATCC 29213 / MRSA, strain MRSA 59): 1 µg/mL (≈ 0.69 µM) | MIC (ATCC 29213 / MRSA, strain MRSA 60): 0.5 µg/mL (≈ 0.345 µM) | MIC (ATCC 29213 / MRSA, strain MRSA 61): 2 µg/mL (≈ 1.38 µM) | MIC (ATCC 29213 / MRSA, strain MRSA 62): 2 µg/mL (≈ 1.38 µM) | MIC (ATCC 29213 / MRSA, strain MRSA 63): 1 µg/mL (≈ 0.69 µM) | MIC (ATCC 29213 / MRSA, strain MRSA 64): 1 µg/mL (≈ 0.69 µM) | MIC (ATCC 29213 / MRSA, strain MRSA 65): 1 µg/mL (≈ 0.69 µM) | MIC (ATCC 29213 / MRSA, strain MRSA 66): 1 µg/mL (≈ 0.69 µM) | MIC (ATCC 29213 / MRSA, strain MRSA 67): 1 µg/mL (≈ 0.69 µM) | MIC (ATCC 29213 / MRSA, strain MRSA 68): 1 µg/mL (≈ 0.69 µM) | MIC (ATCC 29213 / MRSA, strain MRSA 69): 1 µg/mL (≈ 0.69 µM) | MIC (ATCC 29213 / MRSA, strain MRSA 70): 1 µg/mL (≈ 0.69 µM) | MIC (ATCC 29213 / MRSA, strain MRSA 71): 1 µg/mL (≈ 0.69 µM) | MIC (ATCC 29213 / MRSA, strain MRSA 72): 1 µg/mL (≈ 0.69 µM) | MIC (ATCC 29213 / MRSA, strain MRSA 73): 1 µg/mL (≈ 0.69 µM) | MIC (ATCC 29213 / MRSA, strain MRSA 74): 2 µg/mL (≈ 1.38 µM) | MIC (ATCC 29213 / MRSA, strain MRSA 75): 1 µg/mL (≈ 0.69 µM) | MIC (ATCC 29213 / MRSA, strain MRSA 76): 1 µg/mL (≈ 0.69 µM) | MIC (ATCC 29213 / MRSA, strain MRSA 77): 2 µg/mL (≈ 1.38 µM) | MIC (ATCC 29213 / MRSA, strain MRSA 78): 1 µg/mL (≈ 0.69 µM) | MIC (ATCC 29213 / MRSA, strain MRSA 79): 1 µg/mL (≈ 0.69 µM) | MIC (ATCC 29213 / MRSA, strain MRSA 80): 1 µg/mL (≈ 0.69 µM) | MIC (ATCC 29213 / MRSA, strain MRSA 81): 1 µg/mL (≈ 0.69 µM) | MIC (ATCC 29213 / MRSA, strain MRSA 82): 2 µg/mL (≈ 1.38 µM) | MIC (ATCC 29213 / MRSA, strain MRSA 83): 1 µg/mL (≈ 0.69 µM) | MIC (ATCC 29213 / MRSA, strain MRSA 84): 2 µg/mL (≈ 1.38 µM) | MIC (ATCC 29213 / MRSA, strain MRSA 85): 1 µg/mL (≈ 0.69 µM) | MIC (ATCC 29213 / MRSA, strain MRSA 86): 2 µg/mL (≈ 1.38 µM) | MIC (ATCC 29213 / MRSA, strain MRSA 87): 1 µg/mL (≈ 0.69 µM) | MIC (ATCC 29213 / MRSA, strain MRSA 88): 1 µg/mL (≈ 0.69 µM) | MIC (ATCC 29213 / MRSA, strain MRSA 89): 1 µg/mL (≈ 0.69 µM) | MIC (ATCC 29213 / MRSA, strain MRSA 90): 1 µg/mL (≈ 0.69 µM) | MIC (ATCC 29213 / MRSA, strain MRSA 91): 1 µg/mL (≈ 0.69 µM) | MIC (ATCC 29213 / MRSA, strain MRSA 92): 1 µg/mL (≈ 0.69 µM) | MIC (ATCC 29213 / MRSA, strain MRSA 93): 2 µg/mL (≈ 1.38 µM) | MIC (ATCC 29213 / MRSA, strain MRSA 94): 2 µg/mL (≈ 1.38 µM) | MIC (ATCC 29213 / MRSA, strain MRSA 95): 2 µg/mL (≈ 1.38 µM) | MIC (ATCC 29213 / MRSA, strain MRSA 96): 1 µg/mL (≈ 0.69 µM) | MIC (ATCC 29213 / MRSA, strain MRSA 97): 1 µg/mL (≈ 0.69 µM) | MIC (ATCC 29213 / MRSA, strain MRSA 98): 1 µg/mL (≈ 0.69 µM) | MIC (ATCC 29213 / MRSA, strain MRSA 99): 1 µg/mL (≈ 0.69 µM) | MIC (ATCC 29213 / MRSA, strain MRSA 100): 1 µg/mL (≈ 0.69 µM) | MIC (ATCC 29213 / MRSA, strain MRSA 101): 1 µg/mL (≈ 0.69 µM) | MIC (ATCC 29213 / MRSA, strain MRSA 102): 2 µg/mL (≈ 1.38 µM) | MIC (ATCC 29213 / MRSA, strain MRSA 103): 1 µg/mL (≈ 0.69 µM) | MIC (ATCC 29213 / MRSA, strain MRSA 104): 1 µg/mL (≈ 0.69 µM) | MIC (ATCC 29213 / MRSA, strain MRSA 105): 1 µg/mL (≈ 0.69 µM) | MIC (ATCC 29213 / MRSA, strain MRSA 106): 1 µg/mL (≈ 0.69 µM) | MIC (ATCC 29213 / MRSA, strain MRSA 107): 2 µg/mL (≈ 1.38 µM) | MIC (ATCC 29213 / MRSA, strain MRSA 108): 1 µg/mL (≈ 0.69 µM) | MIC (ATCC 29213 / MRSA, strain MRSA 109): 1 µg/mL (≈ 0.69 µM) | MIC (ATCC 29213 / MRSA, strain MRSA 110): 1 µg/mL (≈ 0.69 µM) | MIC (ATCC 29213 / MRSA, strain MRSA 111): 1 µg/mL (≈ 0.69 µM) | MIC (ATCC 29213 / MRSA, strain MRSA 112): 1 µg/mL (≈ 0.69 µM) | MIC (ATCC 29213 / MRSA, strain MRSA 113): 1 µg/mL (≈ 0.69 µM) | MIC (ATCC 29213 / MSSA, strain MSSA 01): 1 µg/mL (≈ 0.69 µM) | MIC (ATCC 29213 / MSSA, strain MSSA 02): 1 µg/mL (≈ 0.69 µM) | MIC (ATCC 29213 / NEWMAN, strain Newman): 2 µg/mL (≈ 1.38 µM)
